Results on two molecules are retold here after US12472208B2 (priority 2013, dated 2025).

Data set [1] relates to cold, flu, or other respiratory illness. Conditions: in vivo.
The subject of data set [2] is illness spreading through the player population. Conditions: over 300 players, 2014 training period, about 4 hours per day, PHPG about 0.3 ppm; historically two to five players miss three to four days per week.
The test system of data set [3] is bronchitis, colds, or flu. The note with it: in vivo.
The test system of the next data set is DNA. The note with it: cited from earlier work.

As for `OO` [PHPG, hydrogen peroxide], the “adverse effects of exposure” value in the data set with subject (continuous exposure) is on record as “no adverse effects”. In addition, the toxicity entry in the data set with subject (levels up to 7 ppm) is on record as “non-toxic”. In addition, the “subjects contracting cold, flu, or other respiratory illness” value in data set [1] is recorded as “none of the subjects contracted cold, flu, or other respiratory illness”. The “players missing training days due to illness during spring training” value in data set [2] is recorded as “only one player missed one training day due to illness”. Also, the “occurrence of bronchitis, colds, or flu” value in data set [3] is “did not suffer bronchitis, colds, or flu”.

Regarding `N#CSO` [OSCN−, hypothiocyanate], the mutagenicity / safety result in the data set with DNA is “non-mutagenic”.
